According to PubChem BioAssay (NCI):
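In this assay, cells in 96-well plates receive the compound at five concentrations for 48 hours. Endpoints are linearly interpolated between the surrounding concentrations. At the GI50, growth is halved. Definition used: TGI = concentration required for complete inhibition of growth.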

Columns and labels:
Test in all cases: growth of human tumour cells (NCI), 48 h
SF-539 CNS = test system: SF-539 CNS
UO-31 renal = test system: UO-31 renal
NCI-H460 lung = test system: NCI-H460 lung
RPMI-8226 leukemia = test system: RPMI-8226 leukemia
NCI-H226 lung = test system: NCI-H226 lung
SW-620 colon = test system: SW-620 colon
SNB-19 CNS = test system: SNB-19 CNS
SR leukemia = test system: SR leukemia
KM12 colon = test system: KM12 colon
NCI-H522 lung = test system: NCI-H522 lung

SMILES | TGI (SF-539 CNS) | TGI (UO-31 renal) | TGI (NCI-H460 lung) | TGI (RPMI-8226 leukemia) | TGI (NCI-H226 lung) | TGI (SW-620 colon) | TGI (SNB-19 CNS) | TGI (SR leukemia) | TGI (KM12 colon) | TGI (NCI-H522 lung) | GI50 (KM12 colon)
CC(C)(Oc1ccc(Cl)cc1)C(=O)N(C(=O)N1CCC(c2ccccc2)CC1)c1ccccc1 | > 100 µM | > 100 µM | > 100 µM | > 46.3 µM | > 100 µM | > 100 µM | > 100 µM | > 100 µM | > 100 µM |  | 
CC1CC/C(=C\c2ccc(Cl)cc2)C2OC(N)=C(C#N)C(c3ccc(Cl)cc3)=C12 (configuration not stated) | 28 µM | 24.9 µM |  | 29.2 µM | 27.1 µM | 89 µM | 39.6 µM |  | 28.8 µM |  | 
O=C(Cn1c(C(=O)/C=C/c2cccs2)nc2ccccc21)c1ccc(Cl)cc1 | > 100 µM | 69.6 µM | 25.8 µM | 29.3 µM | > 100 µM | > 100 µM | > 100 µM | 22 µM | 46.6 µM |  | 
CCOc1cc(C2CC(c3ccc(NS(=O)(=O)c4cc([N+](=O)[O-])ccc4C)cc3)=NN2c2ccc([N+](=O)[O-])cc2[N+](=O)[O-])ccc1O (configuration not stated) | 25.5 µM | 39.8 µM |  | > 100 µM | 24 µM | > 100 µM | 34.5 µM | > 100 µM | > 100 µM | 34.2 µM | 
O=c1cc(N2CCN(c3cc(=O)n4ccccc4n3)CC2)oc2ccccc12 | > 100 µM | > 70.9 µM | > 100 µM | 90.5 µM | > 100 µM | > 100 µM | > 100 µM |  | > 68.5 µM | > 100 µM | 
CCOC(=O)c1nc2ccc(C(F)(F)F)cc2nc1Oc1cc(OC)cc(OC)c1 | > 100 µM | > 100 µM | > 100 µM | > 100 µM | > 100 µM | > 100 µM | > 100 µM |  | > 100 µM |  | 
COc1cc2c(cc1OC)C(Cl)C(c1ccc(Cl)c(Cl)c1)=C2Cl (configuration not stated) | 22.2 µM | 24.8 µM | 16 µM | 12.8 µM | 23.9 µM | 20 µM | 41.8 µM |  |  | > 100 µM | 
CC1(C)CC(=O)c2c(nc3ccc4ccccc4c3c2-c2ccc(NC(=O)CCCCCCCCC(=O)Nc3ccc(-c4c5c(nc6ccc7ccccc7c46)CC(C)(C)CC5=O)cc3)cc2)C1 | > 100 µM | > 100 µM | > 100 µM | > 100 µM | > 100 µM | > 100 µM | > 100 µM | > 100 µM | > 100 µM |  | 
COc1ccccc1NC(=O)CC(=O)N1N=C(C)C(N=Nc2ccc(C(=O)O)cc2)C1=O (configuration not stated) | > 100 µM | > 100 µM |  | > 100 µM |  | > 100 µM | > 100 µM | > 100 µM | > 100 µM | > 100 µM | 
CCOC(=O)Cc1cc(OC)c(OC)cc1/C(Cl)=C(\C=O)c1ccc(OC)c(OC)c1 |  | 85.3 µM | 17.9 µM | 43.1 µM |  | 57 µM | > 100 µM |  |  |  | 
c1cn(C23C4C5C6C4C2C6C53)cn1 (configuration not stated) | > 100 µM |  | > 100 µM | > 100 µM | > 100 µM | > 100 µM | > 100 µM | > 100 µM | > 100 µM | > 100 µM | 
Nc1ncnc2c1nnn2C1CCC(CP(=O)(O)O)C1 (configuration not stated) | > 100 µM | > 100 µM | > 100 µM | > 100 µM | > 100 µM | > 100 µM | > 100 µM | > 100 µM | > 100 µM |  | 
NNC(=O)Cn1c2ccc(Br)cc2c2nc3ccccc3nc21 | > 100 µM | > 100 µM |  | > 100 µM | > 100 µM | > 100 µM | > 100 µM | > 100 µM | > 100 µM |  | 
N#Cc1ccccc1-c1nc2c3c(c(N)ccc3n1)C(=O)c1ccccc1-2 | > 100 µM | > 100 µM | > 100 µM | > 100 µM | > 100 µM | > 100 µM | > 100 µM |  | > 100 µM | > 100 µM | 
O=C1c2cc3c(cc2CC12Cc1ccc4c(c1C2=O)CCCC4)CCCC3 (configuration not stated) | > 100 µM | > 100 µM | > 100 µM | > 100 µM |  | > 100 µM | > 100 µM | > 100 µM |  | > 100 µM | 
C(CCCCc1nnc(N2CCCCC2)o1)CCCc1nnc(N2CCCCC2)o1 | > 100 µM | > 100 µM | > 100 µM |  | > 100 µM | > 100 µM | > 100 µM |  | > 100 µM | > 100 µM | 
COc1cc(/C=C2/C[C@H]3[C@@H]4CC=C5C[C@@H](OC(C)=O)CC[C@]5(C)[C@H]4CC[C@]3(C)NC2=O)cc(OC)c1OC | 37.5 µM | 50.2 µM | > 100 µM |  |  | > 100 µM | 41.9 µM | > 100 µM | > 100 µM | 59.4 µM | 

SMILES | TGI (SF-539 CNS) | TGI (UO-31 renal) | TGI (NCI-H460 lung) | TGI (RPMI-8226 leukemia) | TGI (NCI-H226 lung) | TGI (SW-620 colon) | TGI (SNB-19 CNS) | TGI (SR leukemia) | TGI (KM12 colon) | TGI (NCI-H522 lung) | GI50 (KM12 colon)
COc1ccc(-c2cc(-c3ccc(Nc4ccnc5cc(Cl)ccc45)cc3)[nH]c(=O)c2C#N)c2ccccc12 |  | 15.2 µM | > 100 µM | 7.28 µM | > 100 µM | > 100 µM | > 23.4 µM | 2.6 µM | > 100 µM |  | 
Oc1c([Si](c2ccccc2)(c2ccccc2)c2ccccc2)cc2ccccc2c1-c1c(O)c([Si](c2ccccc2)(c2ccccc2)c2ccccc2)cc2ccccc12 | > 100 µM | > 100 µM | > 100 µM | > 100 µM |  | > 100 µM | > 100 µM | > 100 µM | > 100 µM | > 100 µM | 
COC(=O)C(CSSC[C@H](N/C(C)=C/C(C)=O)C(=O)OC)N/C(C)=C/C(C)=O (some centres not stated) | > 100 µM | > 100 µM | > 100 µM | 63.5 µM | > 100 µM | > 100 µM | > 100 µM |  | > 100 µM | 30 µM | 
COc1ccc(-n2c(=O)n(C)c(=O)n2-c2ccc(OC)cc2)cc1 | > 100 µM | > 100 µM | > 100 µM | > 100 µM | > 100 µM | > 100 µM | > 100 µM | > 100 µM | > 100 µM |  | 
CCOC(=O)c1cnc2oc3ccc(O)cc3c2c1-c1ccccc1 | 46.5 µM |  | > 100 µM | > 100 µM | > 100 µM | > 100 µM | > 100 µM | > 100 µM | > 100 µM |  | 5.11 µM
CCOC(=O)C(NC(=O)CC)(Nc1cc(C)on1)C(F)(F)F (configuration not stated) | > 100 µM | > 100 µM |  | > 100 µM |  | > 100 µM | > 100 µM | > 100 µM |  |  | 
CC1(C)CC(C)(C)C1=NNC(N)=O | > 100 µM | > 100 µM | > 100 µM |  | > 100 µM | > 100 µM | > 100 µM | > 100 µM | > 100 µM | > 100 µM | 
COc1ccc(-c2c(C#N)c(S)n(NS(=O)(=O)c3ccc(C)cc3)c(=O)c2C#N)cc1 | 29.8 µM |  | > 100 µM | 15.4 µM | 89.5 µM | 34.7 µM | > 100 µM |  | 77.5 µM | 33.7 µM | 
O=C(OCCN=c1c2ccccc2ccc2ccccc12)c1ccc([N+](=O)[O-])cc1 | > 100 µM | > 100 µM | > 100 µM | > 100 µM | > 100 µM | > 100 µM | > 100 µM | > 100 µM | > 100 µM |  | 
N#Cc1c(-c2ccc(Cl)cc2)c2c(n(C3OC(CO)C(O)C(O)C3O)c1=S)CCC2 (configuration not stated) | 42.3 µM | > 100 µM | > 100 µM | > 100 µM |  | 58.4 µM | 71 µM | > 100 µM | > 100 µM |  | 
CC1(C)[C@H]2CC[C@]1(C)[C@H](OC(=O)NNC(=O)O[C@@H]1C[C@@H]3CC[C@@]1(C)C3(C)C)C2 | 29.9 µM | 29.2 µM | 28.6 µM | 30.7 µM | 34.1 µM | 72.9 µM | 39.1 µM |  | 37.3 µM | 30.7 µM | 
NCCCN(CCCN)CCN(CCN(CCCN)CCCN)CCN(CCCN)CCCN |  | > 100 µM | > 100 µM | > 100 µM | > 100 µM | > 100 µM | > 100 µM | > 100 µM |  | 63.3 µM | 
Nc1ccccc1CC(O)C(=O)O (configuration not stated) | > 100 µM |  | > 100 µM | > 100 µM | > 100 µM | > 100 µM | > 100 µM | > 100 µM | > 100 µM |  | 
CC(=O)Nc1ccc(OC2=CCN(C)CC2)cc1 |  | > 100 µM | > 100 µM | > 100 µM | > 100 µM | > 100 µM | > 100 µM | > 100 µM | > 100 µM |  | 
CC(=O)Oc1c2oc3ccc(Cl)cc3c(=O)c2c(O)c2ccsc12 | > 100 µM | > 100 µM | > 100 µM | > 100 µM | > 100 µM | > 100 µM | > 100 µM |  | > 100 µM |  | 
COc1ccc(C2N(NC(=O)c3ccncc3)C(=O)CS2(=O)=O)cc1F (configuration not stated) |  |  | > 100 µM | > 100 µM | > 100 µM | > 100 µM | > 100 µM | > 100 µM | > 100 µM | > 100 µM | 
C#CCSC(C=C=C)P(=O)(OC(C)C)OC(C)C (configuration not stated) |  | > 100 µM | > 100 µM | > 100 µM | > 100 µM | > 100 µM | > 100 µM | > 100 µM | > 100 µM | 83.6 µM | 
